Test results: EP4603105A1, “PHARMACEUTICAL COMPOSITION CONTAINING CYCLIC COMPOUND HAVING SELECTIVE KRAS INHIBITORY EFFECT AGAINST HRAS AND NRAS” (CHUGAI SEIYAKU KABUSHIKI KAISHA, priority 2022, dated 2024)
Where a SMILES comes first, the peptide text is derived from it. Bridges are numbered along the chain shown (N, C = ends). [ ]: non-standard residue; d: D form. The star is where a group is joined. hPhe(3-Cl-4-CF3) = N[C@@H](CCc1ccc(C(F)(F)F)c(Cl)c1)C(=O)O; NEtPhe(4-CF3) = CCN[C@@H](Cc1ccc(C(F)(F)F)cc1)C(=O)O; NMeGly(cPent) = CN[C@H](C(=O)O)C1CCCC1; NMeD = CN[C@@H](CC(=O)O)C(=O)O; NMeL = CN[C@@H](CC(C)C)C(=O)O; Morpholide = C1CN(*)CCO1; Ac3c = NC1(C(=O)O)CC1; Sar = CNCC(=O)O

Experiments:
HRAS wild-type protein = HRAS wild-type protein (Homo sapiens, UniProt P01112); experiment: Binding to HRAS by surface plasmon resonance (SPR), KD and KD ratio to KRAS
HRAS wild-type protein, sequence (P01112 whole entry): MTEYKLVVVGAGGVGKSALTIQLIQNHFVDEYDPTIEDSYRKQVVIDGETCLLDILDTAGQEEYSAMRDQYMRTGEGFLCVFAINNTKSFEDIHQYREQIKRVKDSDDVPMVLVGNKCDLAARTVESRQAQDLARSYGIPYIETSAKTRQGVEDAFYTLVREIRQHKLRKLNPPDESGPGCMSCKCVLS
Method in brief: (§1)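 Recombinant RAS proteins bearing a biotinylated Avi tag and loaded with GDP served as the captured ligand, recaptured fresh every cycle. Binding responses were referenced to an uncoated surface and a buffer-only blank cycle. Dissociation constants were obtained by 1:1 model fitting at 30°C.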

[1] = target: GDP-bound NRAS wild-type protein (Homo sapiens, UniProt P01111); experiment: Binding to NRAS by surface plasmon resonance (SPR), KD and KD ratio to KRAS
GDP-bound NRAS wild-type protein, sequence (P01111 whole entry): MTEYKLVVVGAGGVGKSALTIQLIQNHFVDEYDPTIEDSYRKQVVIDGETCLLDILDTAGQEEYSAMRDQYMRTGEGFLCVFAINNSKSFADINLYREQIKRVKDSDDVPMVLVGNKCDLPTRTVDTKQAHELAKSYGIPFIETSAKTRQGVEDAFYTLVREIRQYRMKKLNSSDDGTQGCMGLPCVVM
Method in brief: as §1

[2] = system: human lung cancer strain NCI-H441; type: cell-based
Method in brief: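 Signal came from […] measured per well once the reagent was added. Beforehand, cells were cultured at 37°C and 5% carbon dioxide on a compound series serially diluted in dimethyl sulfoxide.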

[3] = target: GDP-bound KRAS wild-type protein (Homo sapiens, UniProt P01116); experiment: Binding to KRAS by surface plasmon resonance (SPR), dissociation constant KD
GDP-bound KRAS wild-type protein, sequence (P01116 1-188 isoform P01116-2): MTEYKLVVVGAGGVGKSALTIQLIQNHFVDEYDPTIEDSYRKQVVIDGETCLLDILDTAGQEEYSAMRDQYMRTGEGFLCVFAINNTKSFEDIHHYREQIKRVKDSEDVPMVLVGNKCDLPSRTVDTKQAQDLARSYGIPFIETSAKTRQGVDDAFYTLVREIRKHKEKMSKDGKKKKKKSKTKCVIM
Method in brief: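 GDP-bound biotin-Avi RAS captured at ~100–300 RU, 30°C, pH 7.4 HBS containing 10 µM GDP, 10 mM MgCl2, 1 mM DTT, 0.01% Tween 20 and 4% DMSO. KD by 1:1 fitting.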

[4] = ratio of the KD value with respect to HRAS wild-type protein to the KD value with respect to KRAS
[5] = ratio of the KD value with respect to GDP-bound NRAS wild-type protein to the KD value with respect to KRAS
[6] = Single Cycle Kinetics, 1:1 binding model
[7] = ratio of KD for HRAS wild-type protein to KD for KRAS
[8] = ratio of KD for GDP-bound NRAS wild-type protein to KD for KRAS

IC50 [2] [nM] | Kd [3, 6] [nM] | Kd ([3]; Single Cycle Kinetics) [nM] | Kd ([3]; 1:1 binding model) [nM] | SMILES | HRAS /KRAS (HRAS wild-type protein; [4]) | NRAS /KRAS [1, 5] | HRAS /KRAS (HRAS wild-type protein; [7]) | NRAS /KRAS [1, 8]
6.8 | 0.31 | – | – | CCO[C@@H]1C[C@H]2C(=O)NC(C)(C)C(=O)N(C)[C@@H](C3CCCC3)C(=O)N(C)[C@H](C(=O)N(C)CC)CC(=O)N(C)[C@@H](CC(C)C)C(=O)N[C@@H]([C@@H](C)CC)C(=O)N(C)CC(=O)N(C)[C@H]3C/C=C\CCN(C3=O)[C@@H](Cc3ccc(C(F)(F)F)cc3)C(=O)N(C)CC(=O)N[C@@H](CCc3cc(F)c(C(F)(F)F)c(F)c3)C(=O)N2C1 [PP1937] | A (a compound having 10 or more and less than 20 is denoted as A) | A (a compound having 10 or more and less than 20 is denoted as A) | – | –
250 | – | 2 | – | CCO[C@@H]1C[C@H]2C(=O)NC3(CCC3)C(=O)N(C)[C@@H]([C@H](C)CC)C(=O)N(C)[C@H](C(=O)N3CCOCC3)CC(=O)N(C)[C@@H](CC(C)C)C(=O)N[C@@H]([C@@H](C)CC)C(=O)N(C)CC(=O)N(C)[C@H]3CCCCCN(C3=O)[C@@H](Cc3ccc(C(F)(F)F)cc3)C(=O)N(C)CC(=O)N[C@@H](CCc3cc(F)c(C(F)(F)F)c(F)c3)C(=O)N2C1 [PP0821] | – | – | B (a compound having 3 or more and less than 10 is denoted as B) | A (a compound having 10 or more and less than 20 is denoted as A)
16.1 | 0.17 | – | – | CCCN(C)C(=O)[C@@H]1CC(=O)N(C)[C@@H](C2CCC2)C(=O)N[C@@H]([C@@H](C)CC)C(=O)N(C)CC(=O)N(C)[C@H]2C/C=C\CCN(C2=O)[C@@H](Cc2ccc(C(F)(F)F)cc2)C(=O)N(C)CC(=O)N[C@@H](CCc2cc(F)c(C(F)(F)F)c(F)c2)C(=O)N2C[C@H](OCC)C[C@H]2C(=O)NC2(CCC2)C(=O)N(C)[C@@H](C2CCCC2)C(=O)N1C [PP1998] | B (a compound having 3 or more and less than 10 is denoted as B) | A (a compound having 10 or more and less than 20 is denoted as A) | – | –
76.7 | – | – | 1.1 | CCC[C@H]1C(=O)N[C@@H](C2CCCCC2)C(=O)N(C)CC(=O)N(C)[C@H]2C/C=C\CCN(C2=O)[C@@H](Cc2ccc(C)cc2)C(=O)N(C)CC(=O)N[C@@H](CCc2ccc(C(F)(F)F)c(Cl)c2)C(=O)N2C[C@H](OCC)C[C@H]2C(=O)NC2(CC(C)(C)C2)C(=O)N(C)[C@@H](CC(C)C)C(=O)N(C)[C@H](C(=O)N(C)C)CC(=O)N1C [PP3021] | – | – | A (a compound having 10 or more and less than 20 is denoted as A) | AA (a compound having 20 or more is denoted as AA)
49.9 | – | – | 0.49 | CC[C@H](C)[C@@H]1NC(=O)[C@H](CC(C)C)N(C)C(=O)C[C@@H](C(=O)N2CCOCC2)N(C)C(=O)[C@H](C2CCCC2)N(C)C(=O)C2(CC2)NC(=O)[C@@H]2CCCN2C(=O)[C@H](CCc2ccc(C(F)(F)F)c(Cl)c2)NC(=O)CN(C)C(=O)[C@H](Cc2ccc(C(F)(F)F)cc2)N(CC)C(=O)CN(C)C(=O)CN(C)C1=O [PP0234] ([NMeL]I[Sar][Sar][NEtPhe(4-CF3)][Sar][hPhe(3-Cl-4-CF3)]P[Ac3c][NMeGly(cPent)][NMeD]-Morpholide; lactam N-11) | – | – | C (A compound having a KD ratio of 0.1 or more and less than 3 is denoted as C) | B (a compound having 3 or more and less than 10 is denoted as B)
83.3 | 0.47 | – | – | CC[C@H](C)[C@@H]1NC(=O)[C@H](CC(C)C)N(C)C(=O)C[C@@H](C(=O)N2CCOCC2)NC(=O)[C@H](C2CCCC2)N(C)C(=O)C2(CCCC2)NC(=O)[C@@H]2CCCN2C(=O)[C@H](CCc2cc(F)c(C(F)(F)F)c(F)c2)NC(=O)CN(C)C(=O)[C@H](Cc2ccc(C(F)(F)F)cc2)N2CCCC[C@@H](C2=O)N(C)C(=O)CN(C)C1=O [PP0541] | B (a compound having 3 or more and less than 10 is denoted as B) | B (a compound having 3 or more and less than 10 is denoted as B) | – | –
18.4 | – | – | 0.39 | CCO[C@@H]1C[C@H]2C(=O)NC3(CC(C)(C)C3)C(=O)N(C)[C@@H](C3CCCC3)C(=O)N(C)[C@H](C(=O)N(C)C)CC(=O)N(C)[C@@H]([C@@H](C)OC)C(=O)N[C@@H]([C@@H](C)CC)C(=O)N3CCC[C@H]3C(=O)N(C)[C@H]3C/C=C\CCN(C3=O)[C@@H](Cc3ccc(C(F)(F)F)cc3)C(=O)N(C)CC(=O)N[C@@H](CCc3cc(F)c(C(F)(F)F)c(F)c3)C(=O)N2C1 [PP3205] | – | – | A (a compound having 10 or more and less than 20 is denoted as A) | A (a compound having 10 or more and less than 20 is denoted as A)
